Assay results taken from ChEMBL document CHEMBL1781925, “HCV-NS3/4A protease inhibitory iridoid glucosides and dimeric foliamenthoic acid derivatives from Anarrhinum orientale” (J Nat Prod, 2011).
One block for each compound: values may come before it.

Assays:
Trypsin = Trypsin (Homo sapiens, UniProt P07477+P07478+P35030); assay: Inhibition of human trypsin using hilyte fuor 488-labeled casein as substrate after 30 mins by green protease fluorometric assay; format: protein assay
[1] = Inhibition of Hepatitis C virus NS3/4A protease using Ac-Asp-Glu-Dap (QXLTM520)-Glu-Glu-Abu-COO-Ala-Ser-Cys(5-FAMsp)-NH2 as substrate after 30 mins by fluorometric assay; parameters: species or system Hepacivirus hominis

Compound: C[C@]1(OC(=O)/C=C/c2ccccc2)CC[C@@H]2C(C(=O)O)=CO[C@@H](O[C@@H]3O[C@H](CO)[C@@H](O)[C@H](O)[C@H]3O)[C@@H]21
- IC50 (Trypsin): > 200 µM
- IC50 [1]: 109 µM

Compound: C[C@]1(O[C@@H]2O[C@H](COC(=O)/C=C/c3ccccc3)[C@@H](O)[C@H](O)[C@H]2O)CC[C@@H]2C(C(=O)O)=CO[C@@H](O[C@@H]3O[C@H](COC(=O)/C=C/c4ccccc4)[C@@H](O)[C@H](O)[C@H]3O)[C@@H]21
- IC50 (Trypsin): > 200 µM
- IC50 [1]: 125 µM

The remaining lines, values ahead:

- IC50 (Trypsin): > 200 µM
- IC50 [1]: 126 µM
Compound: C/C(=C\CO)CC/C=C(\C)C(=O)OC/C=C(\C)CC/C=C(\C)C(=O)O

- IC50 (Trypsin): > 200 µM
- IC50 [1]: 100 µM
Compound: C[C@]1(O)CC[C@@H]2C(C(=O)O)=CO[C@@H](O[C@@H]3O[C@H](COC(=O)/C=C/c4ccccc4)[C@@H](O)[C@H](O)[C@H]3O)[C@@H]21

- IC50 [1]: > 200 µM
Compound: CC(=O)OC/C=C(\C)CC/C=C(\C)C(=O)OC/C=C(\C)CC/C=C(\C)C(=O)O
